Holding throughout (type): cell-based
For assay [1], the system named is estrogen receptor reporter gene. Briefly: Inhibition of estrogen receptor reporter gene activity (ERE-luc luciferase) in MCF7/ERE-luc cells. The note with it: Homo sapiens, 0.1 nM β-estradiol, 20 hours, read-out: IC50 of inhibitory activity on the activity of the estrogen receptor reporter gene. As for the experimental part:
MCF7 cells MCF7/ERE-luc (ATCC, HTB-22) expressing the luciferase reporter gene ERE-luc (synthesized by GENEWIZ, Inc.) controlled by the estrogen receptor response element were cultured in MEM (GE Healthcare, SH30024.01) medium containing 10% fetal bovine serum and 500 µg/ml G418. On the first day of the experiment, MCF7/ERE-luc cells were seeded in a 96-well plate with incomplete MEM medium containing 10% fetal bovine serum treated with activated charcoal (BioSun, BS-0004-500) at a density of 30,000 cells/well (100 μl of cell suspension per well), and the plate was incubated in a cell incubator at 37° C. and 5% CO2 overnight. On the second day, 10 μl of β-estradiol (SIGMA, E2758-250MG) solution formulated with the above incomplete medium or test compound solution of different concentrations formulated with the above incomplete medium was added to each well, wherein the final concentration of β-estradiol was 0.1 nM, and the final concentrations of the compound were nine concentration points obtained by a 10-fold gradient dilution starting from 10 μM, a blank control containing 0.5% DMSO was set, and the plate was incubated in a cell incubator at 37° C. and 5% CO2 for 20 hours. On the third day, the 96-well plate was taken out, and 100 μl of ONE-Glo™ Luciferase Assay system (Promega, E6110) was added to each well to determine the activity of luciferase. The plate was left to stand at room temperature for 3 minutes until the cells were fully lysed, and the luminescence signal values were measured using a multi-label microplate reader (PerkinElmer, VICTOR 3). The IC50 values of the inhibitory activity of the compounds were calculated using Graphpad Prism software based on the concentrations and luminescence signal values of the compounds.
The inhibitory effect of the compounds of the present disclosure on the activity of the estrogen receptor reporter gene was determined by the above test. A graph of the chemiluminescence signal values versus the logarithmic concentrations of the compound was made using Graghpad Prism.

Another assay deals with MCF7 cell. Briefly: Inhibition of proliferation of MCF7 cell (CellTiter-Glo, 144 hours). The note with it: Homo sapiens; for IC50: MCF7, CellTiter-Glo, read-out: IC50 of the inhibitory effect on the proliferation of MCF7 cell; for Emax: MCF7 cell proliferation, read-out: Maximum inhibition. The method, then: (§1) MCF7 cells (ATCC, HTB-22) were cultured in MEM (GE Healthcare, SH30024.01) complete medium containing 10% fetal bovine serum. On the first day of the experiment, MCF7 cells were seeded in a 96-well plate with the complete medium at a density of 3,000 cells/well (100 μl of cell suspension per well), and the plate was incubated in a cell incubator at 37° C. and 5% CO2 overnight. On the second day, the medium in each well was replaced with 135 μl of MEM incomplete medium containing 2% fetal bovine serum. 15 μl of test compound solution of different concentrations formulated with the incomplete medium was added to each well, wherein the final concentrations of the compound were nine concentration points obtained by a 4-fold gradient dilution starting from 100 nM. A blank control containing 0.5% DMSO was set. The plate was incubated in a cell incubator at 37° C. and 5% CO2 for 144 hours. On the eighth day, the 96-well plate was taken out, and 150 μl of CellTiter-Glo® Luminescent Cell Viability Assay (Promega, G7573) was added to each well. The plate was left to stand at room temperature for 10 minutes, and the luminescence signal values were measured using a multi-label microplate reader (PerkinElmer, VICTOR 3). The IC50 values of the inhibitory activity of the compounds were calculated based on the concentrations and luminescence signal values of the compounds using Graphpad Prism software.
A graph of the chemiluminescence signal values versus the logarithmic concentrations of the compound was made using Graghpad Prism to obtain the IC50 values of the compound.

Another assay has as its system MCF7 D538G. Briefly: Inhibition of proliferation of MCF7 cell expressing ERα D538G mutant. The note with it: Homo sapiens, 144 hours; for Emax: read-out: Maximum inhibition.
Description: (§2) The mutants ERα Y537S and ERα D538G of human estrogen receptor α (ERαs) protein were obtained by site-directed mutagenesis using the cDNA of wild-type ESR1 gene (Accession No. NM000125) as a template according to double-primer PCR. The primer sequences used for mutagenesis are as follows (the nucleotides underlined are the sites of mutagenesis):
(§3) The cDNA of mutant ESR1 was cloned into the target lentiviral vector pCDH-CMV-MCS-EF1-Puro (SBI, CD510B-1). The lentiviral plasmid with the mutant ESR1 gene sequence and the lentiviral packaging plasmids pVSV-G and pCMV-dR8.91 (SBI, LV500A-1) were transfected into HEK-293T cells (ATCC, CRL-3216) by Lipofectamine 3000 Transfection Reagent (ThermoFisher Scientific, Cat #L3000075). 48 hours after the transfection, the supernatant of the virus-containing DMEM high-glycemic medium (GE Healthcare, SH30243.01) containing 10% FBS was filtered, and ultracentrifuged to obtain the virus pellet. The virus pellet was resuspended in an appropriate amount of MEM medium (GE Healthcare, SH30024.01) containing 10% FBS, non-essential amino acids (SIGMA, M7145-100ML) and sodium pyruvate (SIGMA, S8636-100ML), and the resulting suspension was added to MCF7 cells (ATCC, HTB-22). Polybrene (SIGMA, H9268-5G) at a final concentration of 8 µg/ml was added, and the cells were incubated overnight. Two days after the transfection, […] puromycin (invitrogen, A11138-03) was added to the cell culture medium for resistance screening. After about two weeks, the MCF7 cell line capable of stably expressing ERαY537S and ERα D538G mutants was obtained.
as §1, with “MCF7 cells expressing ERα mutant were cultured” for “MCF7 cells (ATCC, HTB-22) were cultured”, “the experiment, the cells were” for “the experiment, MCF7 cells were”, “control containing 0.500 DMSO was” for “control containing 0.5% DMSO was”, “C. and […] for” for “C. and 5% CO2 for”, “and 150 of CellTiter-Glo®” for “and 150 μl of CellTiter-Glo®”

The test system of a further assay is MCF7 ERαY537S. Nature of the assay: Inhibition of proliferation of MCF7 cell expressing ERα Y537S mutant. The note with it: Homo sapiens, 144 hours; for Emax: read-out: Maximum inhibition.
Description: as §2, §3
as §1, with “MCF7 cells expressing ERα mutant were cultured” for “MCF7 cells (ATCC, HTB-22) were cultured”, “the experiment, the cells were” for “the experiment, MCF7 cells were”, “control containing 0.500 DMSO was” for “control containing 0.5% DMSO was”, “C. and […] for” for “C. and 5% CO2 for”, “and 150 of CellTiter-Glo®” for “and 150 μl of CellTiter-Glo®”

In the case of `CN(C)C(=O)/C=C/CN1CCC(Oc2ccc(/C(=C(/CC(F)(F)F)c3ccccc3)c3ccc4[nH]nc(F)c4c3)cn2)CC1` [Example 9, (E)-N,N-Dimethyl-4-(4-((5-((Z)-4,4,4-trifluoro-1-(3-fluoro-1H-indazol-5-yl)-2-phenylbut-1-en-1-yl)pyridin-2-yl)oxy)piperidin-1-yl)but-2-enamide], the IC50 was 2 nM in assay [1], 0.1 nM with MCF7 cell, 0.8 nM in the assay with MCF7 D538G and 2 nM in the assay with MCF7 ERαY537S. For the same compound, the Emax worked out at 110% in the assay on MCF7 cell, 108% in the assay on MCF7 D538G and 94% in the assay on MCF7 ERαY537S.

Take `CC#CC(=O)N1CCC(Oc2ccc(/C(=C(/CC(F)(F)F)c3ccccc3)c3ccc4[nH]nc(F)c4c3)cn2)CC1` [Example 10, (Z)-1-(4-((5-(4,4,4-Trifluoro-1-(3-fluoro-1H-indazol-5-yl)-2-phenylbut-1-en-1-yl)pyridin-2-yl)oxy)piperidin-1-yl)but-2-yn-1-one]: the IC50 in assay [1] turned out to be 8 nM; in the assay with MCF7 cell, 0.3 nM; with MCF7 D538G, 4 nM; with MCF7 ERαY537S, 7 nM. For the same compound, the Emax turned out to be 104% with MCF7 cell, 104% in the assay on MCF7 D538G and 86% in the assay on MCF7 ERαY537S.

For the compound `CNC(=O)/C=C/CN1CCC[C@@H](Oc2ccc(/C(=C(/CC(F)(F)F)c3ccccc3)c3ccc4[nH]nc(F)c4c3)cn2)C1` [Example 11, (E)-N-Methyl-4-((R)-3-((5-((Z)-4,4,4-trifluoro-1-(3-fluoro-1H-indazol-5-yl)-2-phenylbut-1-en-1-yl)pyridin-2-yl)oxy)piperidin-1-yl)but-2-enamide], the IC50 worked out at 3 nM in assay [1], 0.5 nM in the assay on MCF7 cell, 1 nM in the assay on MCF7 D538G and 2 nM in the assay on MCF7 ERαY537S. For the same compound, the Emax in the assay with MCF7 cell was determined as 110%; with MCF7 D538G, 100%; in the assay on MCF7 ERαY537S it was 107%.

Consider `O=C(/C=C/CN1CCC[C@@H](Oc2ccc(/C(=C(/CC(F)(F)F)c3ccccc3)c3ccc4[nH]nc(F)c4c3)cn2)C1)NC1CCOCC1` [Example 13, (E)-N-(Tetrahydro-2H-pyran-4-yl)-4-((R)-3-((5-((Z)-4,4,4-trifluoro-1-(3-fluoro-1H-indazol-5-yl)-2-phenylbut-1-en-1-yl)pyridin-2-yl)oxy)piperidin-1-yl)but-2-enamide], for which the IC50 in assay [1] came out at 3 nM; in the assay on MCF7 cell, 0.6 nM; in the assay with MCF7 D538G, 3 nM; in the assay with MCF7 ERαY537S, 5 nM. Moreover, the Emax was 88% in the assay with MCF7 cell, 107% with MCF7 D538G and 104% in the assay on MCF7 ERαY537S.

For `CC(C)(C)NC(=O)/C=C/CN1CCC[C@@H](Oc2ccc(/C(=C(/CC(F)(F)F)c3ccccc3)c3ccc4[nH]nc(F)c4c3)cn2)C1` [Example 16, (E)-N-(Tert-butyl)-4-((R)-3-((5-((Z)-4,4,4-trifluoro-1-(3-fluoro-1H-indazol-5-yl)-2-phenylbut-1-en-1-yl)pyridin-2-yl)oxy)piperidin-1-yl)but-2-enamide], the IC50 was 5 nM in assay [1], 0.8 nM with MCF7 cell, 2 nM with MCF7 D538G and 4 nM in the assay on MCF7 ERαY537S. The Emax with MCF7 cell was 102%; in the assay on MCF7 D538G, 110%; in the assay with MCF7 ERαY537S it was 88%.

With `O=C(/C=C/CN1CCC[C@@H](Oc2ccc(/C(=C(/CC(F)(F)F)c3ccccc3)c3ccc4[nH]nc(F)c4c3)cn2)C1)NC1CCCC1` [Example 17, (E)-N-Cyclopentyl-4-((R)-3-((5-((Z)-4,4,4-trifluoro-1-(3-fluoro-1H-indazol-5-yl)-2-phenylbut-1-en-1-yl)pyridin-2-yl)oxy)piperidin-1-yl)but-2-enamide], the IC50 in assay [1] worked out at 6 nM; with MCF7 cell it was 0.6 nM; in the assay on MCF7 D538G, 3 nM; with MCF7 ERαY537S it was 3 nM. In addition, the Emax with MCF7 cell came out at 96%; in the assay with MCF7 D538G, 104%; with MCF7 ERαY537S, 102%.

With `CC#CC(=O)N1CCC[C@@H](Oc2ccc(/C(=C(/CC(F)(F)F)c3ccccc3)c3ccc4[nH]nc(F)c4c3)cn2)C1` [Example 25, (R,Z)-1-(3-((5-(4,4,4-Trifluoro-1-(3-fluoro-1H-indazol-5-yl)-2-phenylbut-1-en-1-yl)pyridin-2-yl)oxy)piperidin-1-yl)but-2-yn-1-one], the IC50 in assay [1] worked out at 3 nM; with MCF7 cell, 0.5 nM; in the assay with MCF7 D538G, 1 nM; in the assay on MCF7 ERαY537S, 1 nM. Moreover, the Emax in the assay on MCF7 cell amounted to 109%; in the assay on MCF7 D538G, 112%; in the assay on MCF7 ERαY537S, 107%.

Take `C=CC(=O)N1CCC[C@@H](Oc2ccc(/C(=C(/CC(F)(F)F)c3ccccc3)c3ccc4[nH]nc(F)c4c3)cn2)C1` [Example 26, (R,Z)-1-(3-((5-(4,4,4-Trifluoro-1-(3-fluoro-1H-indazol-5-yl)-2-phenylbut-1-en-1-yl)pyridin-2-yl)oxy)piperidin-1-yl)prop-2-en-1-one]: the IC50 stood at 3 nM in assay [1], 0.3 nM in the assay on MCF7 cell, 1 nM in the assay with MCF7 D538G and 2 nM in the assay with MCF7 ERαY537S. Further, the Emax in the assay on MCF7 cell was found to be 103%; with MCF7 D538G, 111%; with MCF7 ERαY537S it was 104%.

Source of the values: US12325696B2, “Indazole derivative, preparation method therefor, and pharmaceutical application thereof” (JIANGSU HENGRUI MEDICINE CO., LTD., priority 2019, dated 2025).
